From ChEMBL document CHEMBL2396520, “The development of CNS-active LRRK2 inhibitors using property-directed optimisation” (Bioorg Med Chem Lett, 2013)
pIC50, pKi: −log10 of the molar value.

Legend:
[1] = target: T1, Leucine-rich repeat serine/threonine-protein kinase 2 (Homo sapiens, UniProt Q5S007, G2019S); assay: Inhibition of GST-tagged LRRK2 (1326 to 2527 amino acids) G2019S mutant (unknown origin)
Brain = assay: Drug uptake in mouse brain at 1 mg/kg, iv; format: ADME, organism-based; design: dose 1 mg/kg, route intravenous; settings: in vivo
[2] = target: T1, Leucine-rich repeat serine/threonine-protein kinase 2; assay: Inhibition of human recombinant LRRK2 G2019S mutant using biotin-LRRKtide as substrate preincubated for 15 mins prior to substrate addition measured after 60 mins by TR-FRET assay
[3] = target: Leucine-rich repeat serine/threonine-protein kinase 2 (Homo sapiens, UniProt Q5S007); assay: Inhibition of human recombinant wild type LRRK2 using biotin-LRRKtide as substrate preincubated for 15 mins prior to substrate addition measured after 60 mins by TR-FRET assay
Chain of Leucine-rich repeat serine/threonine-protein kinase 2 (Homo sapiens, UniProt Q5S007) (Q5S007 whole entry): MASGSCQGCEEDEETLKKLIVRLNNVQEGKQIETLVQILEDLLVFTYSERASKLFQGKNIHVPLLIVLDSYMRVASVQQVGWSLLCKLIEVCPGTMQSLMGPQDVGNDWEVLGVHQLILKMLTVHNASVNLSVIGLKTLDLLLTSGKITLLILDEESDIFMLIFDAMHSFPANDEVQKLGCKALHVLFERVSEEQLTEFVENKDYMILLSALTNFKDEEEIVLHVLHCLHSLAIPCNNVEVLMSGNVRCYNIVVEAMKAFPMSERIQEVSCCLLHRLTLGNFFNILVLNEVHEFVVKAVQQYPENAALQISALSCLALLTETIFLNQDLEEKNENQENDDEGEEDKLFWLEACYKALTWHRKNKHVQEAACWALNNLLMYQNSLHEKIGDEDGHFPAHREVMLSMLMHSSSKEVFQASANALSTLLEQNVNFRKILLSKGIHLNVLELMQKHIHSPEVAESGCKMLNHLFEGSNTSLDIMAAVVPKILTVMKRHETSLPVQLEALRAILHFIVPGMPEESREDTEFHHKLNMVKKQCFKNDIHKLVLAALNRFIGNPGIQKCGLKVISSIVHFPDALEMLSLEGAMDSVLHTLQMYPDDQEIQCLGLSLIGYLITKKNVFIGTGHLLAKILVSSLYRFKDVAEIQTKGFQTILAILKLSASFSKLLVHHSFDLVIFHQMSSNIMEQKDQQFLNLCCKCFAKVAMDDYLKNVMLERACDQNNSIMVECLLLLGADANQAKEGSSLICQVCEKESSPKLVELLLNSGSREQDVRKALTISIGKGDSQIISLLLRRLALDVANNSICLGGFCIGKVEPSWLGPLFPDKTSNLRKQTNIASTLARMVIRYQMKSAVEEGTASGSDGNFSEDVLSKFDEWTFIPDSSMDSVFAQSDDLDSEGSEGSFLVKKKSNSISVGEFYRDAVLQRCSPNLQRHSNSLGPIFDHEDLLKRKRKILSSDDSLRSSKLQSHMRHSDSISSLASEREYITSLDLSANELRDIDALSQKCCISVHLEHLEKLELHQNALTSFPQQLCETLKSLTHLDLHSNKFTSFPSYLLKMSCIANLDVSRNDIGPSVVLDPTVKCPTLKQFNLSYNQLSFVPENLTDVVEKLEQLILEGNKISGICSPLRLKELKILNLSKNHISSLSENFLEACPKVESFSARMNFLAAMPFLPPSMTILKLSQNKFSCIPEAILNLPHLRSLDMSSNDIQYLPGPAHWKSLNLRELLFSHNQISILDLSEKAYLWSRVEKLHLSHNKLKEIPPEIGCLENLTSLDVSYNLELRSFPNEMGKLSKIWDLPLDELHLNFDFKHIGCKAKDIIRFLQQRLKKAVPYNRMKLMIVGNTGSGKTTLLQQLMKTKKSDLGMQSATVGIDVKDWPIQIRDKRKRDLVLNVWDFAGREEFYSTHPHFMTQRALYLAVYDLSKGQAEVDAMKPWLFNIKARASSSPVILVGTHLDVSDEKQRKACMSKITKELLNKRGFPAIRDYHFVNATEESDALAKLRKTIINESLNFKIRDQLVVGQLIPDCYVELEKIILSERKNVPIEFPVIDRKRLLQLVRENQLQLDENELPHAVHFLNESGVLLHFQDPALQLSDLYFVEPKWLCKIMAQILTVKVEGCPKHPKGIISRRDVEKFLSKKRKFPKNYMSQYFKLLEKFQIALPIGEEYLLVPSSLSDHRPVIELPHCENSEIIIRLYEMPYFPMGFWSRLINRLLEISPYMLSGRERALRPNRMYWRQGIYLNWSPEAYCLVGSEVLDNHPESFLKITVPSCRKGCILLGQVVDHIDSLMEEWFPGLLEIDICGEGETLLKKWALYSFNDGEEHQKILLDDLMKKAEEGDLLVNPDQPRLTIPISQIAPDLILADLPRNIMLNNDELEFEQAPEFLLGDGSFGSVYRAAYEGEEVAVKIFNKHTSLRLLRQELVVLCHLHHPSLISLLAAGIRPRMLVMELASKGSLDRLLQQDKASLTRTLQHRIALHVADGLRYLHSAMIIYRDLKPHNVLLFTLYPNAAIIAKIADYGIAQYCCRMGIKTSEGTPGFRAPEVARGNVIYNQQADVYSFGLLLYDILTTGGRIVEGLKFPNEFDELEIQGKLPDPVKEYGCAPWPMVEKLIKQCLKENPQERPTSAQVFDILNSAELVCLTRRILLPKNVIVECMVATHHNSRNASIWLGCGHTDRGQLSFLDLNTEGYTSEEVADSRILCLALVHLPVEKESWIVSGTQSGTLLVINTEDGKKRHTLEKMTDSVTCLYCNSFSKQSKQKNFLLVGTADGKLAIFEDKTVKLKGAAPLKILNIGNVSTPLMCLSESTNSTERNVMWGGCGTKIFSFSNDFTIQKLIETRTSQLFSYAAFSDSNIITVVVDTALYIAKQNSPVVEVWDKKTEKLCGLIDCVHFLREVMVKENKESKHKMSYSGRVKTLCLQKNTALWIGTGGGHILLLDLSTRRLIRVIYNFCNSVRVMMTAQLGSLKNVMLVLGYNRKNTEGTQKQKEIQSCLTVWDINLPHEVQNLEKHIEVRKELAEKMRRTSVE

T1 sequence (Q5S007 whole entry G2019S, the tested form may be a part): as the sequence (Q5S007 whole entry) above, with G2019S counted along it

Row | Compound | pKi [1] | Drug uptake (Brain) [%] | pIC50 [2] | pKi [2] | pIC50 [3]
1 | COc1cc(C(=O)N2CCC(N3CCN(C)CC3)CC2)ccc1Nc1ncc2c(n1)N(C)c1ccccc1C(=O)N2C | 8.22 |  |  |  | 
2 | COc1cc(N2CCOCC2)ccc1Nc1ncc(F)c(Nc2ccccc2NS(C)(=O)=O)n1 |  | 4 | 8.15 | 8.15 | 8.40
